According to paper PMC10454409, “Hybrids of Sterically Hindered Phenols and Diaryl Ureas: Synthesis, Switch from Antioxidant Activity to ROS Generation and Induction of Apoptosis” (International Journal of Molecular Sciences, 2023):
Where two headings read alike, the source gives them in different places.

Columns and labels:
[1] = tested on: M-HeLa cells (human cervix epithelioid carcinoma); assay: MTT cytotoxicity test, M-HeLa; format: cell-based; conditions: for IC50: Homo sapiens, M-HeLa, MTT test, 24 h incubation per text, 48 h per method
Description: (§1) For the experiments, we used tumor cell cultures M-HeLa clone 11 (epithelioid carcinoma of the cervix, subline HeLa., clone M-HeLa), HuTu 80 (human duodenal adenocarcinoma) and MCF7 (human breast adenocarcinoma (pleural fluid)) from the collection of the Institute of Cytology, Russian Academy of Sciences (St. Petersburg); human liver cells (Chang liver) from the collection of the Research Institute of Virology at the Russian Academy of Medical Sciences (Moscow); and SH-SY5Y (neuroblastoma)from the Laboratory of Tumor Cell Genetics at the Scientific Research Institute of Carcinogenesis N.N. Blokhin National Medical Research Center of Oncology.
(§2) The cytotoxic effect on cells was determined using the colorimetric method of cell proliferation—the MTT test. NADP-H-dependent cellular oxidoreductase enzymes can, under certain conditions, reflect the number of viable cells. These enzymes are able to reduce the tetrazolium dye (MTT)-3-(4,5-dimethylthiazol-2-yl)-2,5-diphenyl-tetrazolium bromide to insoluble blue-violet formazan, which crystallizes inside the cell. The amount of formazan formed is proportional to the number of cells with active metabolism.
(§3) Cells were seeded on a 96-well Nunc plate at a concentration of 5 × 10^3 cells per well in a volume of 100 μL of medium and cultured in a CO2 incubator at 37 °C until a monolayer was formed. […] After 48 h, the nutrient medium was removed from the plates and 100 µL of the nutrient medium without serum with MTT at a concentration of 0.5 mg/mL was added and incubated for 4 h at 37 °C. Formazan crystals were […] 100 µL of DMSO in each well. Optical density was recorded at 540 nm on an in vitro logic microplate reader (Russia). The experiments for all compounds were repeated in triplicate.
(§4) IC50 values were estimated using the Quest Graph IC50 Calculator (AAT Bioquest, Inc., Sunnyvale, CA, USA) (Version 2022) (accessed on 25 June 2022).

[2] = tested on: MCF-7 cells (human breast adenocarcinoma); assay: MTT cytotoxicity test, MCF-7; format: cell-based; conditions: for IC50: 24 h incubation per text, 48 h per method; for SI, selectivity index relative to Chang liver, MCF-7: MCF-7 vs Chang liver
Description: as §2
Formazan crystals were added to 100 µL of DMSO in each well. Optical density was recorded at 540 nm on an in vitro logic microplate reader (Russia). The experiments for all compounds were repeated in triplicate.

[3] = tested on: HuTu 80 cells (human duodenal adenocarcinoma); assay: MTT cytotoxicity test, HuTu 80; format: cell-based; conditions: Homo sapiens
Description: as §1, §2, §3, §4

[4] = tested on: SH-SY5Y cells (neuroblastoma); assay: MTT cytotoxicity test, SH-SY5Y; format: cell-based; conditions: for IC50: Homo sapiens, SH-SY5Y, MTT test, 24 h incubation per text, 48 h per method
Description: as §1, §2, §3, §4

[5] = tested on: Chang liver cells (human liver cells, normal cell line); assay: MTT cytotoxicity test, Chang liver normal cells; format: cell-based; conditions: 48 h incubation
Description: as §1, §2, §3, §4

[6] = tested on: HuTu 80 cells; assay: Intracellular ROS level, CellROX Deep Red flow cytometry; format: cell-based, human; conditions: 48 h incubation, maximum concentration (IC50)
[7] = tested on: SH-SY5Y neuroblastoma cells; assay: Glycolysis stress test (Seahorse XF96e, ECAR); format: cell-based; conditions: compound 100 µM; for Glycolysis: rate of extracellular acidification after saturating glucose: glucose 10 mM; for Glycolytic capacity: oligomycin 1 µM
Description: We studied the ability of compounds to inhibit aerobic glycolysis using the Agilent Seahorse XF96e Analyzer (Seahorse Bioscience, North Billerica, MA, USA) assay of cellular metabolism on the level of proton production in samples examined on the SH-SY5Y neuroblastoma cell line using glycolysis stress tests. The extracellular acidification rate of the medium was measured in real time, which allowed us to assess the intensity of glycolysis in the cells by recording the main parameters of glycolytic function: basal glycolysis, glycolytic capacity and glycolytic reserve. Glycolytic capacity describes the maximum amount of glycolysis/glucose breakdown the cells can perform acutely, whereas glycolytic reserve is defined as the difference between the basal and maximal glycolytic capacity.
The ability of synthesized compounds to modulate […] glycolysis was studied using the Agilent Seahorse XF96e Analyzer (Seahorse Bioscience, Billerica, MA, USA) on the neuroblastoma SH-SY5Y cell line (40,000 cells per well) as described earlier.
Glycolysis was measured by subtracting the maximum rate of extracellular acidification of the medium before glucose injection from the maximum rate before oligomycin injection. Glycolytic capacity was measured by subtracting the maximum velocity value before glucose injection from the maximum velocity value after oligomycin injection. Glycolytic reserve was defined as the difference between glycolytic capacity and glycolysis.
Figure 6 Effect of synthesized compounds on the glycolytic profile of (a–c) SH-SY5Y tumor cells and (d) calculated parameters of glycolytic function. […] The concentration of compounds was 100 µM, glucose—10 mM, oligomycin—1 µM и 2-fluoro-2-deoxy-D-glucose—25 mM. Data are presented as mean±error of the mean (n = 3). Statistical significance was assessed using one-way ANOVA and Dunnett’s multiple comparison tests, where **** p < 0.0001, *** p < 0.001, ** p < 0.01 and * p < 0.05 vs. control.

[8] = tested on: isolated rat liver mitochondria; assay: Membrane potential of isolated mitochondria (Safranin A); format: biochemical
Description: The membrane potential of rat […] mitochondria was measured with a Victor 3 plate analyzer (Perkin Elmer, Hamburg, Germany) using the potential-dependent indicator Safranin A [57]. The mitochondrial preparation was diluted in a buffer containing mannitol (225 mM) (Dia-M, Moscow, Russia), sucrose (75 mM) (Sigma Aldrich, Saint Louis, MO, USA), HEPES (10 mM) (Gibco, Scotland, UK), EGTA (20 µM) (Dia-M, Moscow, Russia) and KH2PO4 (1 mM) at pH = 7.4 at a ratio of 0.5 mg of protein to 1 mL of medium. Safranin A (5 µM) was added to the suspension immediately before the start of the measurement. The organelles were then energized by potassium succinate (5 mM) in the presence of rotenone (1 µM). Mitochondrial pore opening was induced by the addition of CaCl2 (25 µM).
Figure 8 Effect of the synthesized compounds on the membrane potential of rat liver mitochondria. (a) Kinetic lines of transmembrane potential changes at λex = 458 nm and λem = 590 nm. The concentration of the test substances was 100 µM. (b) Calculated parameters of % depolarization relative to control samples. Statistical significance was assessed using one-way ANOVA and Dunnett’s multiple comparison tests, where **** p < 0.0001 vs. control. (c) Concentration dependence of the effects of 11b and 17b on mitochondrial membrane potential. The concentration of the test substances was from 20 to 200 µM. Concentration of ions; Ca^2+—25 µM. Mitochondria were energized by potassium succinate and rotenone. Data are presented as mean±error of the mean (n = 3).

[9] = HuTu80, read-out: IC50, HuTu 80
[10] = HuTu80, MTT test, 24 h incubation per text, 48 h per method, read-out: IC50, HuTu 80

SMILES | IC50 [1] [µM] | IC50 ([2]; Homo sapiens, MCF7, MTT test) [µM] | IC50 [3, 9] [µM] | IC50 [4] [µM] | IC50 [5] [µM] | SI, selectivity index relative to Chang liver, MCF-7 [2] | IC50 [3, 10] [µM] | SI, selectivity index relative to Chang liver, SH-SY5Y ([4]; SH-SY5Y vs Chang liver) | SI, selectivity index relative to Chang liver, M-HeLa ([1]; M-HeLa vs Chang liver) | Intracellular ROS level [6] [%] | Glycolytic reserve [7] | Glycolysis: rate of extracellular acidification after saturating glucose [7] | Glycolytic capacity [7] | Depolarization of mitochondrial membrane ([8]; isolated mitochondria, compound 100 μM) [%] | Depolarization relative to control (class in Figure 8b) ([8]; isolated rat liver mitochondria, compound 100 µM) | IC50 ([2]; MTT test) [µM]
COP(=O)(OC)C(c1cc(C(C)(C)C)c(O)c(C(C)(C)C)c1)c1ccc(N)nc1N (centres unmarked) [3a] | 16.1 ± 1.3 | 31 ± 2.6 | > 100 | > 100 | > 100 | – | – | – | – | – | – | – | – | – | – | –
CCOP(=O)(OCC)C(c1cc(C(C)(C)C)c(O)c(C(C)(C)C)c1)c1ccc(N)nc1N (centres unmarked) [3b] | 17.1 ± 1.3 | 34.2 ± 3 | 86.6 ± 6.8 | 77 ± 1.9 | > 100 | – | – | – | – | – | – | – | – | – | – | –
CC(C)OP(=O)(OC(C)C)C(c1cc(C(C)(C)C)c(O)c(C(C)(C)C)c1)c1ccc(N)nc1N (centres unmarked) [3c] | 38 ± 2.8 | 21.8 ± 1.7 | – | 30.4 ± 0.7 | 100 ± 2.7 | ~5 | > 100 | ~3 | – | – | – | – | – | – | – | –
CC(C)(C)c1cc(C(c2ccc(N)nc2N)P(=O)(Oc2ccccc2)Oc2ccccc2)cc(C(C)(C)C)c1O (centres unmarked) [3d] | 7.4 ± 0.7 | 16.4 ± 1.7 | 63.2 ± 5.6 | 18.8 ± 0.2 | 52.3 ± 3.5 | ~3 | – | – | ~7 | – | – | – | – | – | – | –
CCOP(=O)(OCC)C(c1cc(C(C)(C)C)c(O)c(C(C)(C)C)c1)c1ccc(NC(=O)Nc2ccccc2)nc1NC(=O)Nc1ccccc1 (centres unmarked) [5b] | 62.5 ± 5.2 | 36.3 ± 2.8 | 20 ± 1.7 | 17.9 ± 1.9 | 31.4 ± 2.4 | – | – | – | – | – | – | – | – | – | – | –
CCOP(=O)(OCC)C(c1cc(C(C)(C)C)c(O)c(C(C)(C)C)c1)c1ccc(NC(=O)Nc2cccc(C)c2)nc1NC(=O)Nc1cccc(C)c1 (centres unmarked) [8b] | 62 ± 2.2 | 35.4 ± 2.8 | < 15 | 41 ± 0.3 | 13 ± 1.2 | – | 8 ± 0.6 | – | – | – | – | – | – | – | – | –
Cc1ccc(NC(=O)Nc2ccc(C(c3cc(C(C)(C)C)c(O)c(C(C)(C)C)c3)P(=O)(Oc3ccccc3)Oc3ccccc3)c(NC(=O)Nc3ccc(C)cc3)n2)cc1 (centres unmarked) [9d] | 78.9 ± 6.2 | 76.6 ± 6.2 | 50 ± 4 | > 100 | > 100 | – | – | – | – | – | – | – | – | – | – | –
CCOP(=O)(OCC)C(c1cc(C(C)(C)C)c(O)c(C(C)(C)C)c1)c1ccc(NC(=O)Nc2ccc(OC)cc2)nc1NC(=O)Nc1ccc(OC)cc1 (centres unmarked) [10b] | > 100 | 82.1 ± 6.5 | 45 ± 3.6 | > 100 | 81.2 ± 6.4 | – | – | – | – | – | – | – | – | – | – | –
CCOP(=O)(OCC)C(c1cc(C(C)(C)C)c(O)c(C(C)(C)C)c1)c1ccc(NC(=O)Nc2ccc(Cl)cc2)nc1NC(=O)Nc1ccc(Cl)cc1 (centres unmarked) [11b] | 70 ± 5.5 | 63.1 ± 4.9 | 25.7 | 46.4 ± 0.92 | 99.4 ± 7.8 | – | – | – | – | 670.7 ± 7.2 | ability to decrease glycolytic reserves | decrease in the rate of extracellular acidification | decrease in glycolytic capacity | 50 | High Depolarization | –
COP(=O)(OC)C(c1cc(C(C)(C)C)c(O)c(C(C)(C)C)c1)c1ccc(NC(=O)Nc2cccc(C)c2)cc1NC(=O)Nc1cccc(C)c1 (centres unmarked) [13a] | 75 ± 6 | 77.4 ± 6.3 | 75.1 ± 6.1 | > 100 | 92 ± 7.2 | – | – | – | – | – | – | – | – | – | – | –
CCOP(=O)(OCC)C(c1cc(C(C)(C)C)c(O)c(C(C)(C)C)c1)c1ccc(NC(=O)Nc2cccc(C)c2)cc1NC(=O)Nc1cccc(C)c1 (centres unmarked) [13b] | 96.3 ± 7.5 | 57.7 ± 4.6 | 40.1 ± 3.1 | 86.3 ± 4 | 68.2 ± 5.4 | – | – | – | – | – | – | – | – | – | – | –
CCOP(=O)(OCC)C(c1cc(C(C)(C)C)c(O)c(C(C)(C)C)c1)c1ccc(NC(=O)Nc2ccc(C)cc2)cc1NC(=O)Nc1ccc(C)cc1 (centres unmarked) [14b] | 14.1 ± 1.2 | < 15 | 15.7 ± 1.3 | 27 ± 1.1 | 21 ± 1.8 | – | – | – | – | – | – | decrease in the rate of extracellular acidification | decrease in glycolytic capacity | – | – | 13.7 ± 1.2
CCOP(=O)(OCC)C(c1cc(C(C)(C)C)c(O)c(C(C)(C)C)c1)c1ccc(NC(=O)Nc2ccc(OC)cc2)cc1NC(=O)Nc1ccc(OC)cc1 (centres unmarked) [15b] | > 100 | 96.3 ± 7.6 | 58.7 ± 4.6 | > 100 | 96 ± 7.6 | – | – | – | – | – | – | – | – | – | – | –
CCOP(=O)(OCC)C(c1cc(C(C)(C)C)c(O)c(C(C)(C)C)c1)c1ccc(NC(=O)Nc2ccc(Cl)cc2)cc1NC(=O)Nc1ccc(Cl)cc1 (centres unmarked) [16b] | 100 ± 8.6 | > 100 | 61 ± 4.8 | > 100 | > 100 | – | – | – | – | – | – | – | – | – | – | –
COP(=O)(OC)C(c1cc(C(C)(C)C)c(O)c(C(C)(C)C)c1)c1ccc(NC(=O)Nc2ccc([N+](=O)[O-])cc2)cc1NC(=O)Nc1ccc([N+](=O)[O-])cc1 (centres unmarked) [17a] | 60 ± 4.7 | 73.6 ± 5.8 | 41 ± 3.1 | > 100 | 86 ± 6.6 | – | – | – | – | – | – | – | – | – | – | –
CNC(=O)c1cc(Oc2ccc(NC(=O)Nc3ccc(Cl)c(C(F)(F)F)c3)cc2)ccn1 [SF, sorafenib, reference compound] | 25 ± 1.9 | – | – | – | 21.7 ± 1.7 | – | 6.2 ± 0.5 | – | – | – | – | – | – | – | – | –
